US12552751B2, “Crystal forms A, B, C, D, E, F and G of selumetinib sulfate and preparation methods thereof” (Chunghwa Chemical Synthesis & Biotech Co. Ltd., priority 2023, dated 2026)

Columns and labels:
[1] = Stability of crystal forms in a constant-humidity and constant-temperature cabinet; assay type: physicochemical; details: for Crystal form after exposure, 80° C. and 75% RH, 1 day / Crystal form after exposure, 80° C. and 75% RH, 3 days: powder; for Crystal form stability under 80° C. and 75% RH (text summary of Table 2): time not stated
Description: The stability of crystal forms A, B, C, D, E, F and G of selumetinib sulfate was tested by placing the different crystal forms of selumetinib sulfate into a constant-humidity and constant-temperature cabinet, where the powder of each crystal form was exposed to a temperature of 80° C. and a relative humidity (RH) of 75%.

[2] = solid; cited from earlier work
[3] = cited from earlier work

For `Cn1cnc2c(F)c(Nc3ccc(Br)cc3Cl)c(C(=O)NOCCO)cc21.O=S(=O)(O)O` [Crystal form F, selumetinib sulfate], the “Crystal form after exposure, 80° C. and 75% RH, 1 day” value ([1]; listed as F) was “Remained F”, the “Crystal form after exposure, 80° C. and 75% RH, 3 days” value ([1]; listed as F) was “Remained F” and the “Crystal form stability under 80° C. and 75% RH (text summary of Table 2)” value ([1]; listed as F) was “remained unchanged”.
For `Cn1cnc2c(F)c(Nc3ccc(Br)cc3Cl)c(C(=O)NOCCO)cc21.O=S(=O)(O)O` [Crystal form C, selumetinib sulfate], the “Crystal form after exposure, 80° C. and 75% RH, 1 day” value ([1]; listed as C) was “Remained C”, the “Crystal form after exposure, 80° C. and 75% RH, 3 days” value ([1]; listed as C) was “Remained C” and the “Crystal form stability under 80° C. and 75% RH (text summary of Table 2)” value ([1]; listed as C) was “remained unchanged”.
For `Cn1cnc2c(F)c(Nc3ccc(Br)cc3Cl)c(C(=O)NOCCO)cc21.O=S(=O)(O)O` [Crystal form B, selumetinib sulfate], the “Crystal form after exposure, 80° C. and 75% RH, 1 day” value ([1]; listed as B) was “Remained B”, the “Crystal form after exposure, 80° C. and 75% RH, 3 days” value ([1]; listed as B) was “Remained B” and the “Crystal form stability under 80° C. and 75% RH (text summary of Table 2)” value ([1]; listed as B) was “remained unchanged”.
In the case of `Cn1cnc2c(F)c(Nc3ccc(Br)cc3Cl)c(C(=O)NOCCO)cc21.O=S(=O)(O)O` [Crystal form G, selumetinib sulfate], the “Crystal form after exposure, 80° C. and 75% RH, 1 day” value ([1]; listed as G) is reported as “Remained G”, the “Crystal form after exposure, 80° C. and 75% RH, 3 days” value ([1]; listed as G) is reported as “Remained G” and the “Crystal form stability under 80° C. and 75% RH (text summary of Table 2)” value ([1]; listed as G) is reported as “remained unchanged”.
For `Cn1cnc2c(F)c(Nc3ccc(Br)cc3Cl)c(C(=O)NOCCO)cc21.O=S(=O)(O)O` [Crystal form A, selumetinib sulfate], the “Crystal form after exposure, 80° C. and 75% RH, 1 day” value ([1]; listed as A) was “A turned into C”, the “Crystal form after exposure, 80° C. and 75% RH, 3 days” value ([1]; listed as A) was “A turned into C” and the “Crystal form stability under 80° C. and 75% RH (text summary of Table 2)” value ([1]; listed as crystal form A) was “turned into crystal form C”.
With `Cn1cnc2c(F)c(Nc3ccc(Br)cc3Cl)c(C(=O)NOCCO)cc21.O=S(=O)(O)O` [Crystal form E, selumetinib sulfate] the “Crystal form after exposure, 80° C. and 75% RH, 1 day” value ([1]; listed as E) was “Remained E”, the “Crystal form after exposure, 80° C. and 75% RH, 3 days” value ([1]; listed as E) was “Remained E” and the “Crystal form stability under 80° C. and 75% RH (text summary of Table 2)” value ([1]; listed as E) was “remained unchanged”.
For `Cn1cnc2c(F)c(Nc3ccc(Br)cc3Cl)c(C(=O)NOCCO)cc21.O=S(=O)(O)O` [Crystal form D, selumetinib sulfate], the “Crystal form after exposure, 80° C. and 75% RH, 1 day” value ([1]; listed as D) was “Remained D”, the “Crystal form after exposure, 80° C. and 75% RH, 3 days” value ([1]; listed as D) was “Remained D” and the “Crystal form stability under 80° C. and 75% RH (text summary of Table 2)” value ([1]; listed as D) was “remained unchanged”.
For `Cn1cnc2c(F)c(Nc3ccc(Br)cc3Cl)c(C(=O)NOCCO)cc21.O=S(=O)(O)O` [Selumetinib sulfate], the Hygroscopicity [2] is listed as “non-hygroscopic”, the Solubility in acetonitrile ([3]; acetonitrile) is listed as “slightly soluble” and the Solubility in ethanol ([3]; ethanol) is listed as “slightly soluble”. The Solubility in water ([3]; water) was “very low solubility”.
